# Results taken from patent US7968577B2 (Bristol-Myers Squibb Company, priority 2006, dated 2011).
# Molecular target: T1, human full-length glucocorticoid receptor (Homo sapiens, UniProt P04150)
# T1 construct: recombinantly expressed human full-length glucocorticoid receptor; purchased PanVera Co., Madison, Wis; P2816
# T1 sequence (P04150 1-777): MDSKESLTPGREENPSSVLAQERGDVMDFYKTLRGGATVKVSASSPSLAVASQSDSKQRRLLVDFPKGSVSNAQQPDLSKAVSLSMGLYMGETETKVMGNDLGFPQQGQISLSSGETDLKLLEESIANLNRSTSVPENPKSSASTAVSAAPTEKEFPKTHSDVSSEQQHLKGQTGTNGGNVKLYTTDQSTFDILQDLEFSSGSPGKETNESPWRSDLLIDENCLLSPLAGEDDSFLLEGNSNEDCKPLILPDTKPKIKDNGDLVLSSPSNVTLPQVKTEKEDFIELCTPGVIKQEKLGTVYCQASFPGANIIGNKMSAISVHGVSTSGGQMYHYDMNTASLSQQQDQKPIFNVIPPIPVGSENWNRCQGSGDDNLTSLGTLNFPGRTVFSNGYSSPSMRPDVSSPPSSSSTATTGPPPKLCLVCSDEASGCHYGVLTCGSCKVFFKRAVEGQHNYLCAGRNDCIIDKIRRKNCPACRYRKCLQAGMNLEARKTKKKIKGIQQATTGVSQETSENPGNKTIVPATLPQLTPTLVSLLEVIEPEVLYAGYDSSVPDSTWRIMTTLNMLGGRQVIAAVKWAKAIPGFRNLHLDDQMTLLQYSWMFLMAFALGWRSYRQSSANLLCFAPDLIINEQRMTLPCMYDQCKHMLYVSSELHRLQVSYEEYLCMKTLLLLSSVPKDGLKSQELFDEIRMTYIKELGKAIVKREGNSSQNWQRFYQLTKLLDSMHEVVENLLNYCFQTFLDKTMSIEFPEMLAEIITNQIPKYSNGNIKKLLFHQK
# Experiment: Glucocorticoid Receptor Binding Assay (II), fluorescence polarization competitor kit (Fluormone GS1)
# Conditions: GR Binding Assay (II)
# Protocol: Glucocorticoid Receptor Binding Assay (II)^b
# In order to measure the binding of compounds on the glucocorticoid receptor a commercially available kit was used (Glucocorticoid receptor competitor assay kit, PanVera Co., Madison, Wis., P2816). Briefly, a cell lysate containing recombinantly expressed human full-length glucocorticoid receptor was mixed with a fluorescently labeled glucocorticoid (1 nM Fluormone GS1) in the presence or absence of test compound. After one hour at room temperature, the fluorescence polarization (FP) of the samples were measured.
row,SMILES,Ki [nM]
1,"CC(C)(C)OC(=O)N1CCN(c2ccc(C(c3ccccc3)C(C)(C)C(=O)Nc3nccs3)cc2)CC1 (centres unmarked) [Example 239, 2,2-dimethylethyl 4-(4-(2,2-dimethyl-3-oxo-1-phenyl-3-(1,3-thiazol-2-ylamino)propyl)phenyl)-1-piperazinecarboxylate]",324
2,"CC(C)(C(=O)Nc1nncs1)C(c1ccccc1)c1ccc(N2CCC(O)CC2)cc1 (centres unmarked) [Example 241, 3-(4-(4-hydroxy-1-piperidinyl)phenyl)-2,2-dimethyl-3-phenyl-N-1,3,4-thiadiazol-2-ylpropanamide]",31.3
3,"CC(C)(C(=O)Nc1nccs1)C(c1ccccc1)c1ccc(Nc2ccc(F)cc2)cc1 (centres unmarked) [Example 243, 3-(4-((4-fluorophenyl)amino)phenyl)-2,2-dimethyl-3-phenyl-N-1,3-thiazol-2-ylpropanamide]",29.1
4,"CC(C)(C(=O)Nc1nncs1)C(c1ccccc1)c1cccc(N2CCOCC2)c1 (centres unmarked) [Example 245, 2,2-dimethyl-3-(3-(4-morpholinyl)phenyl)-3-phenyl-N-1,3,4-thiadiazol-2-ylpropanamide]",2310
5,"CC(=O)Nc1ccc(C(c2ccccc2)C(C)(C)C(=O)Nc2nncs2)cc1 (centres unmarked) [Example 246, 3-(4-(acetylamino)phenyl)-2,2-dimethyl-3-phenyl-N-1,3,4-thiadiazol-2-ylpropanamide]",1500
6,"CC(C)(C)OC(=O)Nc1ccc(C(c2ccccc2)C(C)(C)C(=O)Nc2nncs2)cc1 (centres unmarked) [Example 248, 1,1-dimethylethyl (4-(2,2-dimethyl-3-oxo-1-phenyl-3-(1,3,4-thiadiazol-2-ylamino)propyl)phenyl)carbamate]",306
7,"CC(C)(C(=O)Nc1nccs1)C(c1ccccc1)c1ccc(N2CCNCC2)cc1 (centres unmarked) [Example 250, 2,2-Dimethyl-3-phenyl-3-(4-(1-piperazinyl)phenyl)-N-1,3-thiazol-2-ylpropanamide]",348
8,"CC(C)(C(=O)Nc1nncs1)C(c1ccccc1)c1ccc(N2CCNCC2)cc1 (centres unmarked) [Example 251, 2,2-dimethyl-3-phenyl-3-(4-(1-piperazinyl)phenyl)-N-1,3,4-thiadiazol-2-ylpropanamide]",636
9,"COc1ccc([C@H](c2ccccc2)C(C)(C)C(=O)Nc2nc(C)cs2)cc1 [Example 265, 2,2-dimethyl-3-(4-(methyloxy)phenyl)-N-(4-methyl-1,3-thiazol-2-yl)-3-phenylpropanamide]",193
10,"COc1ccc([C@@H](c2ccccc2)C(C)(C)C(=O)Nc2ncc(C)s2)cc1 [Example 268, (3R)-2,2-dimethyl-3-(4-(methyloxy)phenyl)-N-(5-mehtyl-1,3-thiazol-2-yl)-3-phenylpropanamide]",302
11,"COc1ccc([C@H](c2ccccc2)C(C)(C)C(=O)NC2CC2)cc1 [Example 269, (3S)-N-cyclopropyl-2,2-dimethyl-3-(4-(methyloxy)phenyl)-3-phenylpropanamide]",1300
12,"COc1ccc([C@H](c2ccccc2)C(C)(C)C(=O)NC2CCC2)cc1 [Example 271, (3S)-N-cyclobutyl-2,2-dimethyl-3-(4-(methyloxy)phenyl)-3-phenylpropanamide]",770
13,"COc1ccc([C@@H](c2ccccc2)C(C)(C)C(=O)NC2CCC2)cc1 [Example 272, (3R)-N-cyclobutyl-2,2-dimethyl-3-(4-(methyloxy)phenyl)-3-phenylpropanamide]",1160
14,"COc1ccc([C@H](c2ccccc2)C(C)(C)C(=O)NC2CCCC2)cc1 [Example 273, (3S)-N-cyclopentyl-2,2-dimethyl-3-(4-(methyloxy)phenyl)-3-phenylpropanamide]",987
15,"COc1ccc([C@@H](c2ccccc2)C(C)(C)C(=O)NC2CCCC2)cc1 [Example 274, (3R)-N-cyclopentyl-2,2-dimethyl-3-(4-(methyloxy)phenyl)-3-phenylpropanamide]",1530
16,COc1ccc([C@H](c2ccccc2)C(C)(C)C(=O)Nc2nncs2)cc1 [Example 275],51.9
17,"COc1ccc([C@H](c2ccccc2)C(C)(C)C(=O)Nc2ccccn2)cc1 [Example 277, (3S)-2,2-dimethyl-3-(4-(methyloxy)phenyl)-3-phenyl-N-2-pyridinylpropanamide]",2670
18,"COc1ccc([C@H](c2ccccc2)C(C)(C)C(=O)Nc2ccncn2)cc1 [Example 278, (3S)-2,2-dimethyl-3-(4-(methyloxy)phenyl)-3-phenyl-N-4-pyrimidinylpropanamide]",1850
19,"COc1ccc(C(c2ccccc2)C(C)(C)C(=O)Nc2nccs2)c(F)c1 (centres unmarked) [Example 279, 3-(2-fluoro-4-(methyloxy)phenyl)-2,2-dimethyl-3-phenyl-N-1,3-thiazol-2-ylpropanamide]",74.7
20,"COc1ccc(C(c2ccccc2)C(C)(C)C(=O)Nc2nccs2)cc1F (centres unmarked) [Example 281, 3-(3-fluoro-4-(methyloxy)phenyl)-2,2-dimethyl-3-phenyl-N-1,3-thiazol-2-ylpropanamide]",15.5
21,"COc1ccc(C(c2ccccc2)C(C)(C)C(=O)Nc2nncs2)cc1F (centres unmarked) [Example 284, 3-(3-fluoro-4-(methyloxy)phenyl)-2,2-dimethyl-3-phenyl-N-1,3,4-thiadiazol-2-ylpropanamide]",26.9

# More lines, now with the values ahead:
row,Ki [nM],SMILES
1,18.6,"Cc1ccc(CNc2ccc(C(c3ccccc3)C(C)(C)C(=O)Nc3nncs3)cc2)cc1 (centres unmarked) [Example 240, 2,2-dimethyl-3-(4-(((4-methylphenyl)methyl)amino)phenyl)-3-phenyl-N-1,3,4-thiadiazol-2-ylpropanamide]"
2,9.6,"CC(C)(C(=O)Nc1nccs1)C(c1ccccc1)c1ccc(N2CCC(O)CC2)cc1 (centres unmarked) [Example 242, 3-(4-(4-hydroxy-1-piperidinyl)phenyl)-2,2-dimethyl-3-phenyl-N-1,3-thiazol-2-ylpropanamide]"
3,17.8,"CC(C)(C(=O)Nc1nncs1)C(c1ccccc1)c1ccc(N2CCOCC2)c(F)c1 (centres unmarked) [Example 244, 3-(3-fluoro-4-(4-morpholinyl)phenyl)-2,2-dimethyl-3-phenyl-N-1,3,4-thiadiazol-2-ylpropanamide]"
4,413,"CC(=O)Nc1ccc(C(c2ccccc2)C(C)(C)C(=O)Nc2nccs2)cc1 (centres unmarked) [Example 247, 3-(4-(acetylamino)phenyl)-2,2-dimethyl-3-phenyl-N-1,3-thiazol-2-ylpropanamide]"
5,181,"CC(C)(C(=O)Nc1nccs1)C(C)(c1ccccc1)c1ccc(N2CCOCC2)cc1 (centres unmarked) [Example 249, 2,2-dimethyl-3-(4-(4-morpholinyl)phenyl)-3-phenyl-N-1,3-thiazol-2-ylbutanamide]"
6,60.5,"CC(C)(C(=O)Nc1nncs1)C(c1ccccc1)c1ccc(N)cc1 (centres unmarked) [Example 252, 3-(4-aminophenyl)-2,2-dimethyl-3-phenyl-N-1,3,4-thiadiazol-2-ylpropanamide]"
7,130,"CCOC(=O)c1csc(NC(=O)C(C)(C)[C@@H](c2ccccc2)c2ccc(OC)cc2)n1 [Example 263, ethyl 2-((2,2-dimethyl-3-(4-(methyloxy)phenyl)-3-phenylpropanoyl)amino)-1,3-thiazole-4-carboxylate]"
8,315,"COc1ccc([C@@H](c2ccccc2)C(C)(C)C(=O)Nc2nc(C)cs2)cc1 [Example 266, 2,2-dimethyl-3-(4-(methyloxy)phenyl)-N-(4-methyl-1,3-thiazol-2-yl)-3-phenylpropanamide]"
9,111,"COc1ccc([C@H](c2ccccc2)C(C)(C)C(=O)Nc2ncc(C)s2)cc1 [Example 267, (3S)-2,2-dimethyl-3-(4-(methyloxy)phenyl)-N-(5-methyl-1,3-thiazol-2-yl)-3-phenylpropanamide]"
10,2000,"COc1ccc([C@@H](c2ccccc2)C(C)(C)C(=O)NC2CC2)cc1 [Example 270, (3R)-N-cyclopropyl-2,2-dimethyl-3-(4-(methyloxy)phenyl)-3-phenylpropanamide]"
11,100,"COc1ccc(C(c2ccccc2)C(C)(C)C(=O)Nc2nncs2)c(F)c1 (centres unmarked) [Example 280, 3-(2-fluoro-4-(methyloxy)phenyl)-2,2-dimethyl-3-phenyl-N-1,3,4-thiadiazol-2-ylpropanamide]"
12,29.5,"COc1ccc(C(c2ccccc2)C(C)(C)C(=O)Nc2nccs2)cc1F (centres unmarked) [Example 282, 3-(3-fluoro-4-(methyloxy)phenyl)-2,2-dimethyl-3-phenyl-N-1,3-thiazol-2-ylpropanamide]"
13,9.2,"COc1ccc(C(c2ccccc2)C(C)(C)C(=O)Nc2nccs2)cc1F (centres unmarked) [Example 283, 3-(3-fluoro-4-(methyloxy)phenyl)-2,2-dimethyl-3-phenyl-N-1,3-thiazol-2-ylpropanamide]"
14,13.8,"COc1ccc(C(c2ccccc2)C(C)(C)C(=O)Nc2nncs2)cc1F (centres unmarked) [Example 285, 3-(3-fluoro-4-(methyloxy)phenyl)-2,2-dimethyl-3-phenyl-N-1,3,4-thiadiazol-2-ylpropanamide]"
